In patent publication US7323303B2, “Modified β-lactamases and uses thereof” (priority 2003, dated 2008):

How the values were obtained:
Experiment in all cases: Drug screening: E166Cf fluorescence in presence of bacterial β-lactamase culture
Type in all cases: biochemical
Parameters in all cases: key: −: Decline in fluorescence signal (presence of beta-lactam hydrolysis); +: No decline in fluorescence signal (absence of beta-lactam hydrolysis)
[1] = molecular target: T1, B. cereus penPC β-lactamase (Bacillus cereus, UniProt P00809); conditions: antibiotic 1.0×10^−4 M, E166Cf 1.2×10^−7 M
T1 construct: made in house; host or cells: B. subtilis 1A304 (φ105MU331); whole culture used, not purified
Procedure: (§1) The use of the E166Cf enzyme in screening bacterial β-lactamases against various β-lactam antibiotics was investigated. The principle of our method is that when both E166Cf and bacterial β-lactamase are incubated with ‘β-lactamase-unstable’ antibiotics, the fluorescence of the E166Cf enzyme will be suppressed because of the greater catalytic efficiency of the bacterial enzyme. In contrast, when bacterial β-lactamases are screened against ‘β-lactamase-resistant’ antibiotics, the fluorescence of the E166Cf enzyme will be enhanced because of the poor hydrolytic activity of the bacterial enzyme. Thus, any β-lactam antibiotic that causes the labeled enzyme to increase its fluorescence intensity in the presence of bacterial β-lactamases can be used in clinical treatments.
(§2) The β-lactamase II, penPC β-lactamase and penP β-lactamase were expressed in B. subtilis 1A304 (φ105MU331). These enzymes were prepared according to the procedures described previously (Reference 7: Thomwell, S. J. East, A. K., Errington, J. An efficient expression and secretion system based on Bacillus subtilis phage phi 105 and its uses for the production for B. cereus β-lactamase I. (1993) Gene 133, 47-53) with slight modifications. A bacterial strain was streaked on an agar plate containing 5 μg/ml chloramphenicol, and the plate was incubated at 37° C. for 24 h. A single bacterial colony from the agar plate was inoculated into 100 ml of sterilized BHY medium (37 g/l brain heart infusion and 5 g/l yeast extract) which was then incubated at 37° C. with shaking at 300 rpm overnight. About 7 ml of overnight inoculum was added to a baffled conical flask containing 100 ml of sterilized BHY medium. The inoculated medium was incubated at 37° C. with shaking at 300 rpm. When the optical density of the bacterial culture at 600 nm reached 3.5 to 4.0, the bacterial culture was heated in a water bath at 51° C. for 5 min. Afterwards, the bacterial culture was incubated at 37° C. with shaking at 300 rpm for a further 6 h. The bacterial culture was then harvested and stored at −20° C.
(§3) Fluorescence measurements of the E166Cf enzyme in the presence of bacterial cultures and β-lactam antibiotics were performed on a FLUOstar microplate reader (BMG Labtechnologies) equipped with two sample injectors. Excitation and emission filters of 485 and 520 nm respectively were used. For B. cereus penPC β-lactamase, B. licheniformis penP β-lactamase and B. cereus β-lactamase II, the labeled enzymes were mixed with the bacterial cultures, and the mixtures were made up to 300 μl with 50 mM phosphate buffer (pH 7.0) in a 96-well microtiter plate (Corning Costar). For the purpose of comparison, B. subtilis cultures, which produced no β-lactamase, were set up as negative controls. For E. coli. TEM-1 β-lactamase, the labeled enzymes were mixed with the bacterial cultures without dilution. E. coli. cultures, which produced no β-lactamase, were set up as negative controls for comparison. The antibiotics were then added to the bacterial samples by the injectors.
(§4) The results from the time-resolved fluorescence measurements of the labeled enzyme (1.2×10^−7 M) in the presence of various bacterial cultures and β-lactam antibiotics (1.0×10^−4 M) are shown in FIGS. 23 to 26.

B. cereus β-lactamase II = molecular target: T2, B. cereus β-lactamase II (Bacillus cereus, UniProt P04190); conditions: antibiotic 1.0×10^−4 M, E166Cf 1.2×10^−7 M
T2 construct: made in house; host or cells: B. subtilis 1A304 (φ105MU331); whole culture used, not purified
Procedure: as §1, §2, §3, §4

[2] = molecular target: T3, B. licheniformis penP β-lactamase (Bacillus licheniformis, UniProt P00808); conditions: antibiotic 1.0×10^−4 M, E166Cf 1.2×10^−7 M
T3 construct: made in house; host or cells: B. subtilis 1A304 (φ105MU331); whole culture used, not purified
Procedure: as §1, §2, §3, §4

[3] = molecular target: T4, E. coli TEM-1 β-lactamase (Escherichia coli, UniProt P62593); conditions: E. coli TEM-1 culture, undiluted; antibiotic 1.0×10^−4 M; E166Cf 1.2×10^−7 M
T4 construct: made in house; host or cells: E. coli BL21(DE3); whole overnight culture used undiluted, not purified
Procedure: as §1
The TEM-1 β-lactamase was expressed in E. coli. BL21(DE3). Preparation of the TEM-1 β-lactamase was performed as follows. A bacterial strain was streaked on an agar plate containing 100 μg/ml ampicillin, and the plate was incubated at 37° C. for 24 h. A single bacterial colony from the plate was inoculated into 100 ml of sterilized LB broth (28 g/l) which was then incubated at 37° C. with shaking at 280 rpm overnight. After overnight incubation, the bacterial culture was harvested and stored at −20° C.
as §3, §4

Measured: fluorescence signal of E166Cf (beta-lactam hydrolysis)

T3 sequence (P00808 27-307): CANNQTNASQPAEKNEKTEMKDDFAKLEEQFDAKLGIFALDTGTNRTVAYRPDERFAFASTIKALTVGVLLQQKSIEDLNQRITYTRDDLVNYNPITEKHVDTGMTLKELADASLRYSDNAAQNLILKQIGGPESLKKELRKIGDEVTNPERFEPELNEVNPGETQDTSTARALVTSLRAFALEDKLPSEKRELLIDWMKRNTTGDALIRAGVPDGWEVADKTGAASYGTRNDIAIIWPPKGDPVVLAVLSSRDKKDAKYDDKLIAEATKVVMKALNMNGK
T2 sequence (P04190 31-257): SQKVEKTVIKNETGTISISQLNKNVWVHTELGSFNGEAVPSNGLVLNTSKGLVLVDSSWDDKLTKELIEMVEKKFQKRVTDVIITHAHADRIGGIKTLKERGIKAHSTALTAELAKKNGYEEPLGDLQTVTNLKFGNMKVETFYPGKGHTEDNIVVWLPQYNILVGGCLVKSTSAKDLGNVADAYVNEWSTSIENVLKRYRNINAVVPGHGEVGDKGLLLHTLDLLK
T4 sequence (P62593 24-286 limits assumed): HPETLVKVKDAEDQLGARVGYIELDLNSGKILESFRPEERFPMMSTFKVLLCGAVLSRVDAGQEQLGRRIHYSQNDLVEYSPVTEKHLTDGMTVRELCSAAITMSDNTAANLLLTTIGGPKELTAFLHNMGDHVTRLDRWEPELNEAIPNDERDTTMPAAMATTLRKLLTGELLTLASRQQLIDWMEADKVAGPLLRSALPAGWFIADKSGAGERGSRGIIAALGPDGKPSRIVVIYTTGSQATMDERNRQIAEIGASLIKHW
T1 sequence (P00809 28-306): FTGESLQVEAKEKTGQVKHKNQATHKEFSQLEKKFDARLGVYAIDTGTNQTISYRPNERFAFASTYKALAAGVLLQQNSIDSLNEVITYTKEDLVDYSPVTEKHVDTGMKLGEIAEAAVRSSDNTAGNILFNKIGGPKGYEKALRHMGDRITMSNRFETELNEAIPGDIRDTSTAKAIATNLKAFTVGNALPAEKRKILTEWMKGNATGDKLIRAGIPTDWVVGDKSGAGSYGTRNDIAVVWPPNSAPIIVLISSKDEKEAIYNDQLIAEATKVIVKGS

CC1(C)S[C@@H]2[C@H](NC(=O)Cc3ccccc3)C(=O)N2[C@H]1C(=O)O [Penicillin G, penicillin G]
−: all assays above
